Values of other authors, collected in patent publication US20070134724A1, “Phosphorylation of tau by abl” (priority 2005, published 2007).
Where a name gives a salt, the structure may show the parent alone. Read-outs that look alike come from different tables or passages of the source.

How the values were obtained:
Aβ [1] = conditions: guinea pig brains
Aβ [2] = conditions: neurons

In the case of `Cc1ccc(NC(=O)c2ccc(CN3CCN(C)CC3)cc2)cc1Nc1nccc(-c2cccnc2)n1` [Gleevec, imatinib mesylate], the “production of Aβ” value (Aβ [1]) is listed as “inhibits” and the “production of Aβ” value (Aβ [2]) is listed as “inhibits”.
